Patent US8722877B2, “7-deazapurine modulators of histone methyltransferase, and methods of use thereof” (Epizyme, Inc., priority 2010, dated 2014)
Counter-ions that a name gives are not always drawn. Like-named read-outs stand apart in the source and are kept apart here.

Columns and labels:
MOLM-13 cells = assay: Cell growth and viability / proliferation, MOLM-13 cells; assay type: cell-based, human
[1] = test system: H3K79 methylation in MOLM-13 cells; assay: Cellular H3K79 methylation analysis (histone immunoblot) in MOLM-13 cells; assay type: cell-based, human
[2] = test system: non-MLL rearranged human leukemia cell lines; assay: Proliferation IC50 in panel of non-MLL-rearranged leukemia cell lines; assay type: cell-based; details: six non-MLL rearranged cell lines (FIG. 6), read-out: IC50 for inhibition of proliferation
DOT1L(1-416) = DOT1L(1-416) (Homo sapiens (Human), UniProt Q8TEK3); assay: Determination of IC50, DOT1L biochemical assay
HOXA9 = HOXA9 transcript levels by quantitative real-time PCR; details: for IC50: read-out: decrease of HOXA9 transcript, IC50
TBP = assay: Housekeeping gene TBP transcript levels
Jurkat cells = assay: Proliferation assay, Jurkat cells; assay type: cell-based, human; details: 3 μM, several days
MV4-11 cells [3] = assay: Cell cycle and apoptosis by flow cytometry (DNA content, Annexin V), MV4-11 cells; details: 3 μM, after day four over the next six days
MEIS1 = MEIS1 transcript levels by quantitative real-time PCR; details: for IC50: read-out: decrease of MEIS1 transcript, IC50
H3K79me2 in MV4-11 cells = assay: Cellular histone methylation immunoblot in MV4-11 cells
H3K79me2 in Jurkat cells = assay: Cellular H3K79me2 immunoblot in Jurkat cells; details: Jurkat (non-MLL-rearranged)
MV4-11 cells [4] = assay: Proliferation assay, MV4-11 cells; assay type: cell-based, human; details: 3 μM, several days
[5] = test system: MLL-rearranged human leukemia cell lines; assay: Proliferation IC50 in panel of MLL-rearranged leukemia cell lines; assay type: cell-based; details: six MLL-rearranged cell lines (FIG. 6)
CD14 = assay: Cell surface expression of differentiation marker CD14 by flow cytometry, MOLM-13 cells; details: 3 μM
[6] = MV4-11 cells, 3 μM, time course

Sequence of DOT1L(1-416) (Q8TEK3 1-416): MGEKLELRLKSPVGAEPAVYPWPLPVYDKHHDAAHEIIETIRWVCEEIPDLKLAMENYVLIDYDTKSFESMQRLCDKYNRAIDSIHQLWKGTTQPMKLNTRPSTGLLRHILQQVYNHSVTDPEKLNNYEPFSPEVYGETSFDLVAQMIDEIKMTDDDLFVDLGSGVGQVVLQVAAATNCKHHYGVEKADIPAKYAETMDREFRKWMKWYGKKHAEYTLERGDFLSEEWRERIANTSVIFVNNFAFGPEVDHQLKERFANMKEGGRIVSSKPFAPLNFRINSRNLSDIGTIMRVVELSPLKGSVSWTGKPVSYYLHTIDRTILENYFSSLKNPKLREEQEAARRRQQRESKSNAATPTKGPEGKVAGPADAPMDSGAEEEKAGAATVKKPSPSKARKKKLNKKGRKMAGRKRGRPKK

CN(CCCNC(=O)Nc1ccc(C(C)(C)C)cc1)CC1O[C@@H](n2ccc3c(N)ncnc32)[C@H](O)[C@@H]1O (stereo partly shown) [Compound 9, hydrochloride]
IC50 (MOLM-13 cells; MOLM-13 cells, read-out: Proliferation IC50 MOLM-13 cells): 17.3 µM
IC50 ([1]; MOLM-13 cells, read-out: H3K79 IC50 MOLM-13 cells): 77 nM

CC(C)N(CCCNC(=O)Nc1ccc(C(C)(C)C)cc1)C[C@H]1O[C@@H](n2ccc3c(N)ncnc32)[C@H](O)[C@@H]1O [Compound 16, 1-(3-((((2R,3S,4R,5R)-5-(4-amino-7H-pyrrolo[2,3-d]pyrimidin-7-yl)-3,4-dihydroxytetrahydrofuran-2-yl)methyl)(isopropyl)amino)propyl)-3-(4-(tert-butyl)phenyl)urea]
IC50 [2]: > 10 µM
mode of binding to the enzyme (steady state kinetic analysis) (DOT1L(1-416); versus SAM): binds to the enzyme competitively with SAM
estimated half-life for HOXA9 inhibition (HOXA9; 3 μM, mRNA over time): 2.3 days
IC50 (HOXA9; MOLM-13 cells): ~700 nM
IC50 (HOXA9; MV4-11 cells): ~700 nM
number of viable cells (MOLM-13 cells; MOLM-13 cells, 3 μM, several days): dramatically reduced
transcript levels of the housekeeping gene TBP (TBP): unaffected
growth of cells (Jurkat cells): unaffected
cell cycle and apoptosis (MV4-11 cells [3]): increase in sub-G1 and Annexin-positive cells
estimated half-life for MEIS1 inhibition (MEIS1; 3 μM, mRNA over time): 3.3 days
IC50 (MEIS1; MOLM-13 cells): ~700 nM
IC50 (MEIS1; MV4-11 cells): ~700 nM
global H3K79me2 levels (H3K79me2 in MV4-11 cells; MV4-11 (MLL-AF4), immunoblot): concentration dependent reduction
methyl marks affected (panel of methyl-lysine and methyl-arginine specific antibodies) (H3K79me2 in MV4-11 cells; MV4-11 cells): only methyl marks affected by compound 16 treatment were H3K79me1 and H3K79me2
H3K79me2 levels within one day of treatment (H3K79me2 in MV4-11 cells; [6]): modest reduction
time to full depletion of H3K79me2 (H3K79me2 in MV4-11 cells; [6]): four to five
global H3K79me2 levels (H3K79me2 in Jurkat cells): concentration dependent reduction
global H3K79me2 levels ([1]; MOLM-13 (MLL-AF9), immunoblot): concentration dependent reduction
number of viable cells (MV4-11 cells [4]): dramatically reduced
IC50 for inhibition of proliferation [5]: nanomolar to low micromolar range
expression of CD14 (CD14): induced following 12 days

CC(C)N(CCCNC(=O)Nc1ccc(C(C)(C)C)cc1)C[C@H]1O[C@@H](n2ccc3c(N)ncnc32)[C@H](O)[C@@H]1O [Compound 17, 1-(3-((((2R,3S,4R,5R)-5-(4-amino-7H-pyrrolo[2,3-d]pyrimidin-7-yl)-3,4-dihydroxytetrahydrofuran-2-yl)methyl)(isopropyl)amino)propyl)-3-(4-(tert-butyl)phenyl)urea hydrochloride]
IC50 (MOLM-13 cells; Homo sapiens, MOLM-13, read-out: Proliferation IC50 MOLM-13 cells): 3.2 µM
IC50 ([1]; Homo sapiens, MOLM-13, read-out: H3K79 IC50 MOLM-13 cells): 59 nM

CC(C)N(CCCCc1nc2cc(C(C)(C)C)ccc2[nH]1)C[C@H]1O[C@@H](n2ccc3c(N)ncnc32)[C@H](O)[C@@H]1O [Compound 18, (2R,3R,4S,5R)-2-(4-amino-7H-pyrrolo[2,3-d]pyrimidin-7-yl)-5-(((4-(5-(tert-butyl)-1H-benzo[d]imidazol-2-yl)butyl)(isopropyl)amino)methyl)tetrahydrofuran-3,4-diol]
IC50 (DOT1L(1-416)): < 10 nM

CC(C)(C)c1ccc(NC(=O)NCCCNC[C@H]2O[C@@H](n3ccc4c(N)ncnc43)[C@H](O)[C@@H]2O)cc1 [Compound 20]
IC50 (DOT1L(1-416)): < 1000 nM

CC(=O)N(CCCNC(=O)Nc1ccc(C(C)(C)C)cc1)C[C@H]1O[C@@H](n2ccc3c(N)ncnc32)[C@H](O)[C@@H]1O [Compound 21]
IC50 (DOT1L(1-416)): < 1000 nM
